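Growth conditions: 96-well plates. Treatment: test compound, 48 hours, 5 concentrations. Analysis: linear interpolation between bracketing concentrations; unreached endpoints set to highest concentration. Abbreviation: GI50, concentration required for 50% inhibition of growth.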 The source made the active and inactive calls. No stated cut-off is given here; in the data, active = GI50 up to about 1.1 µM and inactive = higher.
Assays:
Test in all cases: growth of human tumour cells (NCI), 48 h
NCI-H226 = test system: NCI-H226
ACHN = test system: ACHN
HOP-92 = test system: HOP-92
SN12C = test system: SN12C
COLO 205 = test system: COLO 205
UACC-62 = test system: UACC-62
CAKI-1 = test system: CAKI-1
A498 = test system: A498
MDA-MB-231 = test system: MDA-MB-231
NCI-H460 = test system: NCI-H460
Hs-578T = test system: Hs-578T
T47D = test system: T47D
UACC-257 = test system: UACC-257
MOLT-4 = test system: MOLT-4
UO-31 = test system: UO-31
MDA-N = test system: MDA-N
HCT-116 = test system: HCT-116
SK-MEL-28 = test system: SK-MEL-28

Row | SMILES | GI50 (NCI-H226) | GI50 (ACHN) | GI50 (HOP-92) | GI50 (SN12C) | GI50 (COLO 205) | GI50 (UACC-62) | GI50 (CAKI-1) | GI50 (A498) | GI50 (MDA-MB-231) | GI50 (NCI-H460) | GI50 (Hs-578T) | GI50 (T47D) | GI50 (UACC-257) | GI50 (MOLT-4) | GI50 (UO-31) | GI50 (MDA-N) | GI50 (HCT-116) | GI50 (SK-MEL-28)
1 | Cn1c(=O)c2nc(CCCc3ccc([N+](=O)[O-])cc3)[nH]c2n(C)c1=O | > 100 µM (inactive) | > 100 µM (inactive) | > 100 µM (inactive) | > 100 µM (inactive) | > 100 µM (inactive) | > 100 µM (inactive) | > 100 µM (inactive) | > 100 µM (inactive) | > 100 µM (inactive) | 91.2 µM (inactive) | > 100 µM (inactive) | > 100 µM (inactive) | > 100 µM (inactive) | 56.6 µM (inactive) | > 100 µM (inactive) | > 100 µM (inactive) | > 100 µM (inactive) | > 100 µM (inactive)
2 | c1ccc(C(OCCN2CC3CCC(C2)N3)c2ccccc2)cc1 | 45 µM (inactive) | > 100 µM (inactive) | 18.3 µM (inactive) | > 100 µM (inactive) | 19 µM (inactive) | 27.7 µM (inactive) | > 100 µM (inactive) | 74 µM (inactive) | > 100 µM (inactive) | 50.4 µM (inactive) | 75.9 µM (inactive) | 29.9 µM (inactive) | 22.7 µM (inactive) | 74.8 µM (inactive) | 64 µM (inactive) | 26.4 µM (inactive) | 40.4 µM (inactive) | 29.9 µM (inactive)
3 | COC(=O)C1=C(O)C(C(=O)OC)[C@]2(O)[C@H](C(=O)OC)[C@H]1C[C@@H](c1ccc(F)cc1)[C@H]2C(=O)OC (stereo partly specified) | 17.3 µM (inactive) | 15.5 µM (inactive) | 27.3 µM (inactive) | 3.63 µM (inactive) | 14.7 µM (inactive) | 13.5 µM (inactive) | 19.1 µM (inactive) | 16.8 µM (inactive) | 30.1 µM (inactive) | 17.4 µM (inactive) | 21.7 µM (inactive) | 22.6 µM (inactive) | 11.9 µM (inactive) | 15.2 µM (inactive) | 14.1 µM (inactive) | 3.87 µM (inactive) | 7.19 µM (inactive) | 14.2 µM (inactive)
4 | CSc1ncnc2c1ncn2C1CC(Oc2ccc(C)cc2)C(COc2ccc(C)cc2)O1 (stereo unspecified) | > 100 µM (inactive) | > 100 µM (inactive) | > 100 µM (inactive) | > 100 µM (inactive) | > 100 µM (inactive) | > 100 µM (inactive) | 24.7 µM (inactive) | > 100 µM (inactive) | > 100 µM (inactive) | > 100 µM (inactive) | > 100 µM (inactive) | 16.6 µM (inactive) | > 100 µM (inactive) | 6.1 µM (inactive) |  | > 100 µM (inactive) | > 100 µM (inactive) | > 100 µM (inactive)
5 | CCOc1ccc(/N=N/C2C(=O)N(C(=O)CC(=O)Nc3ccccc3OC)N=C2C)cc1 (stereo unspecified) | > 52.1 µM (inactive) | > 100 µM (inactive) | > 32.4 µM (inactive) | > 100 µM (inactive) | > 100 µM (inactive) | > 44.3 µM (inactive) | > 36.7 µM (inactive) | > 30.1 µM (inactive) | > 36.5 µM (inactive) | 13.8 µM (inactive) | 2.85 µM (inactive) | > 65 µM (inactive) | > 74.3 µM (inactive) | > 22.3 µM (inactive) | > 71.1 µM (inactive) | 2.52 µM (inactive) | 8.63 µM (inactive) | > 100 µM (inactive)
6 | Cc1[nH]c2[nH]c(=S)nc(NC(N)=S)c2c1Cc1ccccc1 | > 100 µM (inactive) | > 100 µM (inactive) | > 100 µM (inactive) | > 100 µM (inactive) | 15.1 µM (inactive) | 29.9 µM (inactive) | 98.6 µM (inactive) | > 100 µM (inactive) | 28.1 µM (inactive) | 48.6 µM (inactive) | 18.9 µM (inactive) | 21.8 µM (inactive) | 54.3 µM (inactive) | 23.4 µM (inactive) | 22.8 µM (inactive) | 22.7 µM (inactive) | 31.8 µM (inactive) | 21.9 µM (inactive)
7 | O=C(c1ccccc1)C1N=NCC1c1ccc([N+](=O)[O-])cc1 (stereo unspecified) | 50.4 µM (inactive) | 47.1 µM (inactive) | 23.1 µM (inactive) | > 100 µM (inactive) | 39.4 µM (inactive) | 49.4 µM (inactive) | 15 µM (inactive) | 39 µM (inactive) | > 100 µM (inactive) | 38.1 µM (inactive) | 34.8 µM (inactive) | 3.91 µM (inactive) | 27 µM (inactive) | 22.4 µM (inactive) | 30.1 µM (inactive) | 29.6 µM (inactive) | 51.8 µM (inactive) | 61.5 µM (inactive)
8 | CN(/N=C/c1ccccn1)C1=NCCCCN1 | > 100 µM (inactive) | > 100 µM (inactive) | > 100 µM (inactive) |  | > 100 µM (inactive) | > 100 µM (inactive) | > 100 µM (inactive) | > 100 µM (inactive) | > 100 µM (inactive) | > 100 µM (inactive) | > 100 µM (inactive) | > 100 µM (inactive) | > 100 µM (inactive) | > 100 µM (inactive) | > 100 µM (inactive) | > 100 µM (inactive) | > 100 µM (inactive) | > 100 µM (inactive)
9 | COc1cccc2c1C(=O)c1c(O)c3c(c(O)c1C2=O)CC(O)(C(=O)CO)CC3OC1CC(N2CCOCC2C#N)C(O)C(C)O1 (stereo unspecified) | < 0.0001 µM (active) | < 0.0001 µM (active) | < 0.0001 µM (active) | < 0.0001 µM (active) | < 0.0001 µM (active) | < 0.0001 µM (active) | < 0.0001 µM (active) | > 0.01 µM (active) | < 0.0001 µM (active) | < 0.0001 µM (active) | > 0.01 µM (active) | < 0.0001 µM (active) | < 0.0001 µM (active) | < 0.0001 µM (active) | > 0.01 µM (active) | < 0.0001 µM (active) | < 0.0001 µM (active) | < 0.0001 µM (active)
10 | COc1cc(/C=N/c2ccc(S(N)(=O)=O)cc2)cc(OC)c1 | > 50 µM (inactive) | > 50 µM (inactive) | > 50 µM (inactive) | > 50 µM (inactive) | > 50 µM (inactive) | > 50 µM (inactive) | > 50 µM (inactive) | > 50 µM (inactive) | 20.1 µM (inactive) | > 50 µM (inactive) | > 50 µM (inactive) | > 50 µM (inactive) | > 50 µM (inactive) | 36.9 µM (inactive) | > 50 µM (inactive) | 26.5 µM (inactive) | 19.8 µM (inactive) | > 50 µM (inactive)
11 | O=C1/C(=C\c2c(-c3ccccc3)[nH]n(-c3ccccc3)c2=O)C(c2ccccc2)=NN1c1ccccc1 | > 100 µM (inactive) | > 100 µM (inactive) | 81.3 µM (inactive) | > 100 µM (inactive) | > 100 µM (inactive) | > 100 µM (inactive) | > 100 µM (inactive) | > 100 µM (inactive) | > 100 µM (inactive) | > 100 µM (inactive) | > 100 µM (inactive) | > 100 µM (inactive) | > 100 µM (inactive) | > 100 µM (inactive) | > 100 µM (inactive) | > 100 µM (inactive) | > 100 µM (inactive) | > 100 µM (inactive)
